The test system of test [1] is K562. Put plainly: Cytotoxicity against human K562 cells after 48 hrs by MTT assay. It counts as functional, cell-based. The note with it: K562, 48 h. (Formazan colour is commonly taken as a measure of viable cells.)
Test [2] deals with K562. Put plainly: Induction of cell cycle arrest in human K562 cells assessed as decrease in accumulation of cells at S phase at 1.4 uM after 24 hrs by propidium iodide staining based flow cytometric analysis. It counts as functional. (In general: In flow cytometry, cells or beads pass a laser one at a time.)
Test [3] concerns ADR5000 cell line. Put plainly: Cytotoxicity against human CEM/ADR5000 cells after 48 hrs by MTT assay. It counts as functional, cell-based. To be noted: ADR5000, 48 h.
Test [4] has as its system K562. Put plainly: Induction of cell cycle arrest in human K562 cells assessed as decrease in accumulation of cells at G1 phase at 1.4 uM after 24 hrs by propidium iodide staining based flow cytometric analysis. In kind it is functional.
Test [5] has as its system K562-Lucena 1. Kind of test: Induction of cell cycle arrest in human K562-Lucena 1 cells assessed as decrease in accumulation of cells at G1 phase at 40 uM after 24 hrs by propidium iodide staining based flow cytometric analysis. In kind it is functional.
Test [6] has as its system CCRF-CEM. Kind of test: Cytotoxicity against human CCRF-CEM cells after 48 hrs by MTT assay. In kind it is functional, cell-based.
In test [7] the test system is K562-Lucena 1. Kind of test: Cytotoxicity against human K562-Lucena 1 cells after 48 hrs by MTT assay. It counts as functional, cell-based. To be noted: K562-Lucena 1, 48 h.
Test [8] relates to K562. Put plainly: Induction of apoptosis in human K562 cells assessed as early apoptotic cells at 2 mM after 24 hrs by Annexin V-FITC/PI double staining based flow cytometry analysis (reference value: 2.76%). In kind it is functional.
The test system of test [9] is K562-Lucena 1. Put plainly: Induction of cell cycle arrest in human K562-Lucena 1 cells assessed as necrotic cells at 2 mM after 24 hrs by propidium iodide staining based flow cytometric analysis (reference value: 1.03%). In kind it is functional.
The subject of test [10] is K562-Lucena 1. Put plainly: Induction of cell cycle arrest in human K562-Lucena 1 cells assessed as necrotic cells at 2 mM after 48 hrs by propidium iodide staining based flow cytometric analysis (reference value: 2.15%). In kind it is functional.
The subject of test [11] is K562. Put plainly: Induction of DNA fragmentation in human K562 cells at 2 mM incubated for 48 hrs by DAPI staining based fluorescence microscopy. It counts as functional, cell-based.
The subject of test [12] is K562-Lucena 1. Put plainly: Induction of cell cycle arrest in human K562-Lucena 1 cells assessed as early apoptotic cells at 2 mM after 48 hrs by propidium iodide staining based flow cytometric analysis (reference value: 7.57%). In kind it is functional.
For test [13], the system named is K562-Lucena 1. Kind of test: Induction of cell cycle arrest in human K562-Lucena 1 cells assessed as viable cells at 2 mM after 24 hrs by propidium iodide staining based flow cytometric analysis (reference value: 88%). It counts as functional. The note with it: K562-Lucena 1, 24 h, read-out: Activity.
Test [14] has as its system K562-Lucena 1. Kind of test: Induction of cell cycle arrest in human K562-Lucena 1 cells assessed as late apoptotic cells at 2 mM after 24 hrs by propidium iodide staining based flow cytometric analysis (reference value: 3.15%). In kind it is functional.
The subject of test [15] is K562-Lucena 1. Put plainly: Induction of DNA fragmentation in human K562-Lucena 1 cells at 2 mM incubated for 48 hrs by DAPI staining based fluorescence microscopy. In kind it is functional, cell-based.
Test [16] relates to K562-Lucena 1. Put plainly: Induction of cell cycle arrest in human K562-Lucena 1 cells assessed as viable cells at 2 mM after 48 hrs by propidium iodide staining based flow cytometric analysis (reference value: 87.1%). In kind it is functional. To be noted: K562-Lucena 1, 48 h, read-out: Activity.
The subject of test [17] is K562. Kind of test: Induction of morphological changes in human K562 cells assessed as appearance of apoptotic bodies at 2 mM incubated for 48 hrs by DAPI staining based fluorescence microscopy. In kind it is functional, cell-based.
The subject of test [18] is K562. Kind of test: Induction of morphological changes in human K562 cells assessed as appearance of condensed chromatin at 2 mM incubated for 48 hrs by DAPI staining based fluorescence microscopy. In kind it is functional, cell-based.
Test [19] relates to K562. Put plainly: Induction of apoptosis in human K562 cells assessed as viable cells at 2 mM after 24 hrs by Annexin V-FITC/PI double staining based flow cytometry analysis (Rvb =96.4%). It counts as functional. The note with it: K562, 24 h, read-out: Activity.
The test system of test [20] is K562. Kind of test: Induction of apoptosis in human K562 cells assessed as necrotic cells at 2 mM after 24 hrs by Annexin V-FITC/PI double staining based flow cytometry analysis (reference value: 0.085%). In kind it is functional.
Test [21] concerns K562-Lucena 1. Put plainly: Induction of morphological changes in human K562-Lucena 1 cells assessed as appearance of condensed chromatin at 2 mM incubated for 48 hrs by DAPI staining based fluorescence microscopy. It counts as functional, cell-based.
Test [22] has as its system K562-Lucena 1. Put plainly: Induction of cell cycle arrest in human K562-Lucena 1 cells assessed as late apoptotic cells at 2 mM after 48 hrs by propidium iodide staining based flow cytometric analysis (reference value: 3.23%). It counts as functional.
Test [23] relates to K562-Lucena 1. Kind of test: Induction of morphological changes in human K562-Lucena 1 cells assessed as appearance of apoptotic bodies at 2 mM incubated for 48 hrs by DAPI staining based fluorescence microscopy. In kind it is functional, cell-based.
Test [24] has as its system K562. Kind of test: Induction of apoptosis in human K562 cells assessed as viable cells at 2 mM after 48 hrs by Annexin V-FITC/PI double staining based flow cytometry analysis (Rvb =97.8%). In kind it is functional. The note with it: K562, 48 h, read-out: Activity.
For test [25], the system named is K562. Kind of test: Induction of apoptosis in human K562 cells assessed as necrotic cells at 2 mM after 48 hrs by Annexin V-FITC/PI double staining based flow cytometry analysis (reference value: 0.13%). In kind it is functional.
Test [26] relates to K562. Put plainly: Induction of apoptosis in human K562 cells assessed as early apoptotic cells at 2 mM after 48 hrs by Annexin V-FITC/PI double staining based flow cytometry analysis (reference value: 1.67%). It counts as functional.
Test [27] has as its system K562. Put plainly: Induction of apoptosis in human K562 cells assessed as late apoptotic cells at 2 mM after 48 hrs by Annexin V-FITC/PI double staining based flow cytometry analysis (reference value: 0.41%). It counts as functional.
Test [28] concerns K562. Put plainly: Induction of apoptosis in human K562 cells assessed as late apoptotic cells at 2 mM after 24 hrs by Annexin V-FITC/PI double staining based flow cytometry analysis (reference value: 0.79%). In kind it is functional.
Test [29] deals with K562-Lucena 1. Kind of test: Induction of cell cycle arrest in human K562-Lucena 1 cells assessed as early apoptotic cells at 2 mM after 24 hrs by propidium iodide staining based flow cytometric analysis (reference value: 7.79%). It counts as functional.

Active and inactive are the calls of the source. The calls are words filed in the database; no cut-off is given here.

Turning to `COc1cccc2c1C(=O)c1c(O)c3c(c(O)c1C2=O)C[C@@](O)(C(=O)CO)C[C@@H]3O[C@H]1C[C@H](N)[C@H](O)[C@H](C)O1` [DOXORUBICIN], the IC50 in test [1] was 1.4 µM; in test [3], more than 10 µM; in test [6], 0.17 µM; in test [7], more than 10 µM. For the same compound, the outcome in [2] and in test [4] was inactive. Further, the result in [5] was Active.

As to `C=C(CO)C(=O)O[C@H]1C/C(COC(C)=O)=C/CC/C(C)=C/[C@H]2OC(=O)C(=C)[C@H]12`, the IC50 in test [1] was more than 10 µM; in test [3], 7.7 µM; in [6] it was 3.5 µM; in [7], more than 10 µM.

For `C=C(CO)C(=O)O[C@H]1C[C@@]2(C=O)OC2CC/C(C)=C/[C@H]2OC(=O)C(=C)[C@H]12` (stereo partly specified), the IC50 in test [1] is 6.9 µM; in test [3], 4.6 µM; in [6], 2 µM; in test [7], more than 10 µM.

With `NC(=O)NO` [HYDROXYUREA], the Activity is on record as 2.82% in test [8]; 1.99% in [9]; 5.57% in test [10]; 22.1% in test [12]; 5.06% in test [14]; 0.75% in [20]. Moreover, the Activity in test [22] was 12.2%; in [25], 1.5%; in [26], 21.9%; in test [27], 6.06%; in test [28] it was 0.45%; in [29], 15.3%. In addition, the result in test [11], in [15], in test [17], in test [18], in test [21] and in [23] was Active. Moreover, the viability at 2000 µM in [13] stood at 77.7%; in test [16] it was 60.1%; in test [19] it was 96%; in test [24] it was 70.5%.

In the case of `C=C(CO)C(=O)O[C@H]1C/C(CO)=C/CC/C(C)=C/[C@H]2OC(=O)C(=C)[C@H]12`, the IC50 in test [1] was 7 µM; in [3] it was 1.7 µM; in [6] it was 0.46 µM; in test [7], more than 10 µM.

The term IC50 denotes the point on the concentration scale where inhibition reaches its midpoint. Low readings indicate inhibition by little substance, high ones a need for much substance.
